Assays:
Type in all cases: in vivo
Avena fatua = assay: Greenhouse post-emergence treatment of Avena fatua (spring-wild oat); details: scale 0 (no damage) to 100 (complete destruction)
Text: (§1) The seeds of the test plants were sown separately for each species. For the post-emergence treatment, the test plants were first grown to a height of 3 to 15 cm, depending on the plant habit, and only then treated with the active ingredients which had been suspended or emulsified in water. For this purpose, the test plants were either sown directly and grown in the same containers, or they were first grown separately as seedlings and transplanted into the test containers a few days prior to treatment. Depending on the species, the plants were kept at 10-25° C. or 20-35° C. The test period extended over 2 to 4 weeks. During this time, the plants were tended, and their response to the individual treatments was evaluated. Evaluation was carried out using a scale from 0 to 100. 100 means no emergence of the plants, or complete destruction of at least the aerial moieties, and 0 means no damage, or normal course of growth. A good herbicidal activity is given at values of at least 80 and a very good herbicidal activity is given at values of at least 90. The plants used in the greenhouse experiments belonged to the following species: [table]

Abutilon theophrasti = assay: Greenhouse post-emergence treatment of Abutilon theophrasti (velvetleaf); details: application rate 3.0 kg/ha, scale 0 (no damage) to 100 (complete destruction)
Text: as §1

Matricaria inodora = assay: Greenhouse post-emergence treatment of Matricaria inodora (horse daisy); details: application rate 2.0 kg/ha, scale 0 (no damage) to 100 (complete destruction)
Text: as §1

[1] = test system: Amaranthus retroflexus L.; assay: Greenhouse post-emergence treatment of Amaranthus retroflexus L. (pigweed); details: application rate 1.0 kg/ha, scale 0 to 100
Text: as §1

Polygonum convolvulus = assay: Greenhouse post-emergence treatment of Polygonum convolvulus (wild buckwheat); details: application rate 1.0 kg/ha, scale 0 to 100
Text: as §1

Chenopodium album = assay: Greenhouse post-emergence treatment of Chenopodium album (fat-hen); details: application rate 1.0 kg/ha; for pest or weed control at 1000 g/ha: scale 0 to 100, read-out: damage; for damage: scale 0 to 100
Text: as §1

Agrostis stolonifera L. = assay: Greenhouse post-emergence treatment of Agrostis stolonifera L. (white bent); details: application rate 2.0 kg/ha, scale 0 (no damage) to 100 (complete destruction)
Text: as §1

Alopecurus myosuroides = assay: Greenhouse post-emergence treatment of Alopecurus myosuroides (blackgrass); details: application rate 1.0 kg/ha, scale 0 (no damage) to 100 (complete destruction)
Text: as §1

Lolium multiflorum = assay: Greenhouse post-emergence treatment of Lolium multiflorum (italian ryegrass); details: application rate 1.0 kg/ha, scale 0 (no damage) to 100 (complete destruction)
Text: as §1

Setaria faberi = assay: Greenhouse post-emergence treatment of Setaria faberi (giant foxtail); details: application rate 3.0 kg/ha; for damage: scale 0 to 100
Text: as §1

Cc1noc2nc(C3CC3)cc(C(=O)OCC(F)(F)F)c12 [I.1.67]
damage (Avena fatua; application rate 3.0 kg/ha): 95%
damage (Abutilon theophrasti): 100%

O=C(O)c1cc(C2CC2)nc2onc(-c3ccco3)c12 [I.2.4]
damage (Matricaria inodora): 98%

O=C(O)c1cc(C2CC2)nc2onc(-c3ccccc3OC(F)F)c12 [I.2.64]
damage [1]: 100%
damage (Polygonum convolvulus): 80%

CC(C)c1noc2nc(C3(F)CC3)cc(C(=O)O)c12 [I.7.67]
pest or weed control at 1000 g/ha (Chenopodium album): 100%
damage (Polygonum convolvulus): 100%

Cc1noc2nc(C3CC3)cc(C(=O)OCc3nc(-c4cccs4)no3)c12 [I.1.10]
damage (Matricaria inodora): 85%
damage (Agrostis stolonifera L.): 90%

CCCCc1noc2nc(C3(F)CC3)cc(C(=O)O)c12 [I.7.66]
damage (Chenopodium album): 100%
damage (Polygonum convolvulus): 100%

Cc1noc2nc(C3CC3)cc(C(=O)OCC(=O)OC(C)(C)C)c12 [I.1.43]
damage (Avena fatua; application rate 1.0 kg/ha): 90%
damage (Alopecurus myosuroides): 80%

COc1ccc(-c2nc(COC(=O)c3cc(C4CC4)nc4onc(C)c34)co2)cc1 [I.1.31]
damage (Matricaria inodora): 95%
damage (Agrostis stolonifera L.): 85%

Cc1ccsc1-c1noc2nc(C3CC3)cc(C(=O)O)c12 [I.2.69]
pest or weed control at 1000 g/ha (Chenopodium album): 95%
damage (Polygonum convolvulus): 85%

CC(C)(C)Cc1noc2nc(C3(F)CC3)cc(C(=O)O)c12 [I.7.69]
damage [1]: 100%
damage (Polygonum convolvulus): 100%

O=C(O)c1cc(C2(F)CC2)nc2onc(-c3ccc(Br)cc3)c12 [I.7.60]
damage [1]: 100%
damage (Polygonum convolvulus): 100%

O=C(O)c1cc(C2(F)CC2)nc2onc(-c3ccc(C(F)(F)F)cc3)c12 [I.7.59]
damage [1]: 100%
damage (Polygonum convolvulus): 100%

O=C(O)c1cc(C2CC2)nc2onc(-c3ccc([N+](=O)[O-])cc3)c12 [I.2.65]
damage [1]: 100%
damage (Polygonum convolvulus): 100%

CCOC(=O)c1cc(C2CC2)nc2onc(C)c12 [I.1.63]
damage (Avena fatua; application rate 3.0 kg/ha): 80%

Cc1noc2nc(C3CC3)cc(C(=O)OCc3nc4ccccc4o3)c12 [I.1.21]
damage (Lolium multiflorum): 100%
damage (Chenopodium album): 100%

O=C(O)c1cc(C2CC2)nc2onc(-c3ccccc3Br)c12 [I.2.59]
damage (Chenopodium album): 95%
damage (Polygonum convolvulus): 90%

CCc1ccc(C(=O)COC(=O)c2cc(C3CC3)nc3onc(C)c23)s1 [I.1.49]
damage (Matricaria inodora): 98%
damage (Agrostis stolonifera L.): 85%

Cc1noc2nc(C3CC3)cc(C(=O)OC(C)C(N)=O)c12 (centres unmarked) [I.1.24]
damage (Matricaria inodora): 100%

CCCN(CC1CC1)C(=O)COC(=O)c1cc(C2CC2)nc2onc(C)c12 [I.1.35]
damage (Avena fatua; application rate 3.0 kg/ha): 85%
damage (Abutilon theophrasti): 90%

COC(=O)c1cc(C2CC2)nc2onc(C)c12 [I.1.39]
damage (Avena fatua; application rate 2.0 kg/ha): 85%
damage (Agrostis stolonifera L.): 90%

O=C(O)c1cc(C2CC2)nc2onc(-c3ccc(Br)cc3)c12 [I.2.20]
damage (Setaria faberi): 95%
damage (Abutilon theophrasti): 100%

COc1ccc(-c2noc3nc(C4CC4)cc(C(=O)O)c23)cc1 [I.2.8]
damage (Setaria faberi): 80%
damage (Abutilon theophrasti): 100%

CCOC(=O)C1=C(COC(=O)c2cc(C3CC3)nc3onc(C)c23)NC(=O)NC1 [I.1.2]
damage (Matricaria inodora): 90%

O=C(O)c1cc(C2CC2)nc2onc(C3CCC3)c12 [I.2.12]
pest or weed control at 3000 g/ha (Setaria faberi; scale 0 to 100, read-out: damage): 90%
pest or weed control at 3000 g/ha (Abutilon theophrasti; Abutilon theophrasti): 100%

From US10334851B2, “Herbicidal isoxazolo[5,4-B]pyridines” (BASF SE, priority 2010, dated 2019)
